According to patent US20130035314A1, “METHODS AND KITS FOR DETECTING RISK FACTORS FOR DEVELOPMENT OF JAW OSTEONECROSIS AND METHODS OF TREATMENT THEREOF” (priority 2010, published 2013):

Tests used:
[1] = Cohort study of multiple myeloma patients on IV BP: risk factors for BONJ (univariate and multivariate logistic regression); format: in vivo, human
Experimental: Multiple myeloma patients who were on intravenous BP (zoledronate or pamidronate) were recruited to voluntarily participate in this Institution Review Board (IRB) approved study. These patients signed informed consents and were followed routinely in the outpatient clinic. In addition to MM treatments, patients received either pamidronate 90mg or zoledronate 4mg IV monthly. Demographic and clinical information were verified from reviewing the medical records and tabled for analysis. Certain life style factors such as smoking at any time in the past, as well as certain co-morbidities such as diabetes mellitus, and prior drugs used were among the data collected on all patients.
Patients were considered to have BONJ if all of the following three characteristics are present (American Association of Oral and Maxillofacial Surgeons position paper, J Oral Maxillofac Surg, 65(3):369-76, 2007): 1) Current or previous treatment with a bisphosphonate; 2) Exposed bone in the maxillofacial region that has persisted for more than eight weeks; and 3) No history of radiation therapy to the jaws. […]
Baseline characteristics were compared by student's t-test or chi-square tests as appropriate. Allele frequencies deviations from Hardy-Weinberg Equilibrium (HWE) were assessed using chi-square tests with one degree of freedom. […]

[2] = Chart review of BONJ incidence in bisphosphonate-treated cancer patients; format: in vivo, human; conditions: outpatient bone marrow transplant clinic, all patients had myeloma; pamidronate only
Source text: Medical and dental charts at the University of Florida (UF) and the associated Veterans Administration Medical Center (VAMC) were reviewed. […] There were 21 males. […] Fourteen patients had modest increases in their serum creatinine concentrations. The average number of previous chemo/radiotherapy regimens was 3.5. […] Primary disease status was as follows: 12 patients in clinical remission, 5 with stable disease and 10 with progressive disease. Eight patients received statin therapy and 6 had diabetes mellitus. The median length of treatment with bisphosphonate (BP) before the diagnosis of BONJ was 28 months. BONJ involved the mandible in 21 patients, maxilla in 4 and both in 2 patients. The most frequent presentation was pain, swelling, and exposed bone (FIG. 1). […] The BONJ incidence differed among the 3 centers where these patients were treated. […] The incidence in the VAMC was 4.2% while the incidence in the Cancer Center clinic at UF was 1.7%. In the latter two groups, patients had mostly solid tumors. The results described herein are consistent with the reports of increased incidence of BONJ with greater duration of therapy and that myeloma patients are more likely to develop the complication than solid tumor patients.

For `O=C1CCC(N2C(=O)c3ccccc3C2=O)C(=O)N1` (stereo not drawn) [Thalidomide], which “Odds Ratio for BONJ” value ([1]; multivariate logistic regression analysis of potential risk factors, MM patients on IV BP) is on record?
The value was 0.106.

Which BONJ incidence [2] does the source give for `NCCC(O)(P(=O)(O)O)P(=O)(O)O` [pamidronate] here?
The BONJ incidence was 4%.

For `O=P(O)(O)C(O)(Cn1ccnc1)P(=O)(O)O` [zoledronate], which “association between BONJ and treatment” value ([1]; univariate analysis, persisted in multivariate logistic regression, P=0.00029, 78 MM patients, 12 with BONJ) is on record?
Its value is “significant association”.
